Reference: ChEMBL document CHEMBL1201861, “Genomics of Drug Sensitity in Cancer screening data, Wellcome Trust Sanger Institute”

Columns and labels:
Assay in all cases: cells
BV-173 = type: functional, cell-based, Homo sapiens; details: Homo sapiens, BV-173
Description: SANGER: Inhibition of human BV-173 cell growth in a cell viability assay.

NB5 = type: functional, cell-based, Homo sapiens; details: Homo sapiens, NB5;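 note: growth inhibition of NB5 cells, read out as cell viability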
Description: SANGER: Inhibition of human NB5 cell growth in a cell viability assay.

L-363 = type: functional, cell-based, Homo sapiens; details: Homo sapiens, L-363
Description: SANGER: Inhibition of human L-363 cell growth in a cell viability assay.

NCI-H1299 = type: functional, cell-based; details: Homo sapiens;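 note: growth inhibition of human NCI-H1299 cells, read out by a cell viability assay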
Description: SANGER: Inhibition of human NCI-H1299 cell growth in a cell viability assay.

OCUB-M = type: functional, cell-based; details: Homo sapiens;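 note: growth inhibition of the cancer cell line, read out through a cell viability assay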
Description: SANGER: Inhibition of human OCUB-M cell growth in a cell viability assay.

SW 962 = type: functional, cell-based, Homo sapiens; details: Homo sapiens, SW 962;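 note: growth inhibition of human SW962 cells, read out by a cell viability assay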
Description: SANGER: Inhibition of human SW962 cell growth in a cell viability assay.

NB6 = type: functional, cell-based, Homo sapiens; details: Homo sapiens, NB6;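 note: growth inhibition of NB6 cells, read out by a cell viability assay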
Description: SANGER: Inhibition of human NB6 cell growth in a cell viability assay.

GR-ST = type: functional, cell-based, Homo sapiens; details: Homo sapiens, GR-ST
Description: SANGER: Inhibition of human GR-ST cell growth in a cell viability assay.

EW-18 = type: functional, cell-based, Homo sapiens; details: Homo sapiens, EW-18; read-out: IC50;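 note: growth inhibition of EW-18 cells, read out by a cell viability assay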
Description: SANGER: Inhibition of human EW-18 cell growth in a cell viability assay.

D-247MG = type: functional, cell-based; details: Homo sapiens
Description: SANGER: Inhibition of human D-247MG cell growth in a cell viability assay.

L-428 = type: functional, cell-based, Homo sapiens; details: Homo sapiens, L-428
Description: SANGER: Inhibition of human L-428 cell growth in a cell viability assay.

MV4-11 = type: functional, cell-based, Homo sapiens, MV-4-11; details: Homo sapiens, MV4-11;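 note: cell viability readout measuring growth inhibition of human MV-4-11 cells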
Description: SANGER: Inhibition of human MV-4-11 cell growth in a cell viability assay.

RH-1 = type: functional, cell-based, Homo sapiens; details: Homo sapiens, RH-1;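 note: growth inhibition of human RH-1 cells, read out with a cell viability assay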
Description: SANGER: Inhibition of human RH-1 cell growth in a cell viability assay.

KP-N-YS = type: functional, cell-based, Homo sapiens; details: Homo sapiens, KP-N-YS;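 note: cell viability assay measuring inhibition of cell line growth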
Description: SANGER: Inhibition of human KP-N-YS cell growth in a cell viability assay.

TE-9 = type: functional, cell-based, Homo sapiens; details: Homo sapiens, TE-9;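 note: cell growth inhibition, measured with a cell viability readout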
Description: SANGER: Inhibition of human TE-9 cell growth in a cell viability assay.

TE-5 = type: functional, cell-based, Homo sapiens; details: Homo sapiens, TE-5;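 note: inhibition of cell growth, read out by a cell viability assay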
Description: SANGER: Inhibition of human TE-5 cell growth in a cell viability assay.

SCC-15 = type: functional, cell-based, Homo sapiens; details: Homo sapiens, SCC-15;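 note: growth inhibition of SCC-15 cells, read out with a cell viability assay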
Description: SANGER: Inhibition of human SCC-15 cell growth in a cell viability assay.

LB771-HNC = type: functional, cell-based; details: Homo sapiens;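 note: growth inhibition of LB771-HNC human cells, read out with a cell viability assay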
Description: SANGER: Inhibition of human LB771-HNC cell growth in a cell viability assay.

ES5 = type: functional, cell-based, Homo sapiens; details: Homo sapiens, ES5;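 note: growth inhibition of human ES5 cells, read out by a cell viability assay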
Description: SANGER: Inhibition of human ES5 cell growth in a cell viability assay.

NCI-H226 = type: functional, cell-based, Homo sapiens; details: Homo sapiens, NCI-H226;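 note: cell viability read-out used to gauge growth inhibition of the cells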
Description: SANGER: Inhibition of human NCI-H226 cell growth in a cell viability assay.

PSN1 = type: functional, cell-based, Homo sapiens; details: Homo sapiens, PSN1;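 note: suppression of growth of human PSN1 cells, read out by a cell viability assay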
Description: SANGER: Inhibition of human PSN1 cell growth in a cell viability assay.

no-10 = type: functional, cell-based, Homo sapiens; details: Homo sapiens;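 note: growth inhibition of no-10 cells, read out with a cell viability assay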
Description: SANGER: Inhibition of human no-10 cell growth in a cell viability assay.

NCI-H526 = type: functional, cell-based, Homo sapiens; details: Homo sapiens, NCI-H526;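 note: growth inhibition of the human NCI-H526 cell line, measured by a cell viability assay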
Description: SANGER: Inhibition of human NCI-H526 cell growth in a cell viability assay.

NEC8 = type: functional, cell-based, Homo sapiens; details: Homo sapiens, NEC8;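 note: growth inhibition of human NEC8 cells, read out by a cell viability assay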
Description: SANGER: Inhibition of human NEC8 cell growth in a cell viability assay.

GAK = type: functional, cell-based, Homo sapiens; details: Homo sapiens, GAK;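 note: cell growth inhibition read out by a cell viability assay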
Description: SANGER: Inhibition of human GAK cell growth in a cell viability assay.

U-87 MG = type: functional, cell-based, Homo sapiens, U-87MG ATCC; details: Homo sapiens, U-87 MG;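 note: growth inhibition of the cells measured with a viability assay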
Description: SANGER: Inhibition of human U-87-MG cell growth in a cell viability assay.

SK-NEP-1 = type: functional, cell-based, Homo sapiens; details: Homo sapiens, SK-NEP-1;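 note: growth inhibition of human SK-NEP-1 cells, read out by a cell viability assay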
Description: SANGER: Inhibition of human SK-NEP-1 cell growth in a cell viability assay.

LB1047-RCC = type: functional, cell-based, Homo sapiens; details: Homo sapiens, LB1047-RCC;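 note: inhibition of cell growth, determined with a cell viability assay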
Description: SANGER: Inhibition of human LB1047-RCC cell growth in a cell viability assay.

HAL-01 = type: functional, cell-based, Homo sapiens; details: Homo sapiens, HAL-01;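 note: growth inhibition of human HAL-01 cells, read out with a cell viability assay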
Description: SANGER: Inhibition of human HAL-01 cell growth in a cell viability assay.

NCI-H720 = type: functional, cell-based, Homo sapiens; details: Homo sapiens, NCI-H720;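 note: growth inhibition of human NCI-H720 cells determined by a cell viability assay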
Description: SANGER: Inhibition of human NCI-H720 cell growth in a cell viability assay.

MOLT-16 = type: functional, cell-based, Homo sapiens; details: Homo sapiens, MOLT-16;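 note: growth inhibition of human MOLT-16 cells, read out with a cell viability assay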
Description: SANGER: Inhibition of human MOLT-16 cell growth in a cell viability assay.

NCI-H1092 = type: functional, cell-based, Homo sapiens; details: Homo sapiens, NCI-H1092;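 note: cell growth inhibition measured with a cell viability assay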
Description: SANGER: Inhibition of human NCI-H1092 cell growth in a cell viability assay.

LXF-289 cell line = type: functional, cell-based; details: Homo sapiens
Description: SANGER: Inhibition of human LXF-289 cell growth in a cell viability assay.

8-MG-BA = type: functional, cell-based, Homo sapiens; details: Homo sapiens, 8-MG-BA;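 note: growth inhibition of 8-MG-BA cells, read out with a cell viability assay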
Description: SANGER: Inhibition of human 8-MG-BA cell growth in a cell viability assay.

QIMR-WIL = type: functional, cell-based, Homo sapiens; details: Homo sapiens, QIMR-WIL;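 note: growth inhibition of QIMR-WIL cells, read out with a cell viability assay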
Description: SANGER: Inhibition of human QIMR-WIL cell growth in a cell viability assay.

SK-PN-DW = type: functional, cell-based, Homo sapiens; details: Homo sapiens, SK-PN-DW;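 note: growth inhibition measured with a viability assay on these cells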
Description: SANGER: Inhibition of human SK-PN-DW cell growth in a cell viability assay.

GI-1 = type: functional, cell-based, Homo sapiens; details: Homo sapiens, GI-1;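 note: growth inhibition of human GI-1 cells, measured with a cell viability readout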
Description: SANGER: Inhibition of human GI-1 cell growth in a cell viability assay.

OVCAR-4 = type: functional, cell-based, Homo sapiens; details: Homo sapiens, OVCAR-4;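 note: growth inhibition of human OVCAR-4 cells, measured with a cell viability assay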
Description: SANGER: Inhibition of human OVCAR-4 cell growth in a cell viability assay.

SCH = type: functional, cell-based, Homo sapiens; details: Homo sapiens, SCH;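 note: growth inhibition of human SCH cells, read out in a cell viability assay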
Description: SANGER: Inhibition of human SCH cell growth in a cell viability assay.

SJSA-1 = type: functional, cell-based, Homo sapiens; details: Homo sapiens, SJSA-1;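 note: growth inhibition of human SJSA-1 cells, read out through a cell viability measurement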
Description: SANGER: Inhibition of human SJSA-1 cell growth in a cell viability assay.

HCC1187 = type: functional, cell-based, Homo sapiens; details: Homo sapiens, HCC1187;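 note: growth inhibition of HCC1187 cells, read out with a cell viability assay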
Description: SANGER: Inhibition of human HCC1187 cell growth in a cell viability assay.

MHH-NB-11 = type: functional, cell-based, Homo sapiens; details: Homo sapiens, MHH-NB-11;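 note: growth inhibition of human MHH-NB-11 cells, read out by a cell viability assay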
Description: SANGER: Inhibition of human MHH-NB-11 cell growth in a cell viability assay.

NCI-N87 = type: functional, cell-based; details: Homo sapiens;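 note: growth inhibition of human NCI-N87 cells, read out with a cell viability assay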
Description: SANGER: Inhibition of human NCI-N87 cell growth in a cell viability assay.

CCRF-CEM = type: functional, cell-based, Homo sapiens; details: Homo sapiens, CCRF-CEM;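 note: inhibition of CCRF-CEM cell growth, measured by a cell viability assay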
Description: SANGER: Inhibition of human CCRF-CEM cell growth in a cell viability assay.

TGBC1TKB = type: functional, cell-based, Homo sapiens; details: Homo sapiens, TGBC1TKB;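 note: growth inhibition of TGBC1TKB cells, read out by a cell viability assay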
Description: SANGER: Inhibition of human TGBC1TKB cell growth in a cell viability assay.

OCI-AML2 = type: functional, cell-based, Homo sapiens; details: Homo sapiens, OCI-AML2;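 note: growth inhibition of OCI-AML2 cells, read out with a cell viability assay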
Description: SANGER: Inhibition of human OCI-AML2 cell growth in a cell viability assay.

RXF 393 = type: functional, cell-based, Homo sapiens; details: Homo sapiens, RXF 393;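 note: growth inhibition of human RXF 393 cells, read out with a cell viability assay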
Description: SANGER: Inhibition of human RXF393 cell growth in a cell viability assay.

NCI-H1355 = type: functional, cell-based, Homo sapiens; details: Homo sapiens, NCI-H1355;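 note: growth inhibition of human NCI-H1355 cells, read out by a cell viability assay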
Description: SANGER: Inhibition of human NCI-H1355 cell growth in a cell viability assay.

SNB-75 = type: functional, cell-based, Homo sapiens; details: Homo sapiens, SNB-75;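 note: cell viability assay measuring growth inhibition of human SNB-75 cells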
Description: SANGER: Inhibition of human SNB75 cell growth in a cell viability assay.

HCC2157 = type: functional, cell-based, Homo sapiens; details: Homo sapiens, HCC2157;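 note: growth inhibition of the cancer cell line, read out as cell viability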
Description: SANGER: Inhibition of human HCC2157 cell growth in a cell viability assay.

CN(NC(=O)CC(=O)NN(C)C(=S)c1ccccc1)C(=S)c1ccccc1 [ELESCLOMOL]
IC50 (BV-173): 0.00539 µM | IC50 (NB5): 0.0307 µM | IC50 (L-363): 0.0123 µM | IC50 (NCI-H1299): 0.0185 µM | IC50 (OCUB-M): 0.195 µM | IC50 (SW 962): 0.111 µM | IC50 (NB6): 0.142 µM | IC50 (GR-ST): > 0.2 µM | IC50 (EW-18): > 0.2 µM | IC50 (D-247MG): 0.0247 µM | IC50 (L-428): > 0.2 µM | IC50 (MV4-11): 0.018 µM | IC50 (RH-1): 0.0582 µM | IC50 (KP-N-YS): 0.0799 µM | IC50 (TE-9): 0.117 µM | IC50 (TE-5): 0.015 µM | IC50 (SCC-15): 0.0256 µM | IC50 (LB771-HNC): > 0.2 µM | IC50 (ES5): 0.0118 µM | IC50 (NCI-H226): 0.131 µM | IC50 (PSN1): 0.00384 µM | IC50 (no-10): > 0.2 µM | IC50 (NCI-H526): > 0.2 µM | IC50 (NEC8): 0.0115 µM | IC50 (GAK): > 0.2 µM | IC50 (U-87 MG): > 0.2 µM | IC50 (SK-NEP-1): 0.0761 µM | IC50 (LB1047-RCC): 0.0107 µM | IC50 (HAL-01): 0.128 µM | IC50 (NCI-H720): 0.124 µM | IC50 (MOLT-16): 0.00453 µM | IC50 (NCI-H1092): 0.0901 µM | IC50 (LXF-289 cell line): 0.014 µM | IC50 (8-MG-BA): 0.00914 µM | IC50 (QIMR-WIL): 0.0329 µM | IC50 (SK-PN-DW): 0.00902 µM | IC50 (GI-1): 0.00826 µM | IC50 (OVCAR-4): 0.00587 µM | IC50 (SCH): > 0.2 µM | IC50 (SJSA-1): 0.0123 µM | IC50 (HCC1187): 0.0793 µM | IC50 (MHH-NB-11): 0.0691 µM | IC50 (NCI-N87): > 0.2 µM | IC50 (CCRF-CEM): > 0.2 µM | IC50 (TGBC1TKB): 0.0333 µM | IC50 (OCI-AML2): 0.136 µM | IC50 (RXF 393): 0.0134 µM | IC50 (NCI-H1355): 0.00889 µM | IC50 (SNB-75): 0.105 µM

CCCCCCCCCCCC1=C(O)C(=O)C=C(O)C1=O [EMBELIN]
IC50 (BV-173): > 32 µM | IC50 (NB5): 22.4 µM | IC50 (L-363): 24.1 µM | IC50 (NCI-H1299): > 32 µM | IC50 (OCUB-M): 5.32 µM | IC50 (SW 962): 7.77 µM | IC50 (NB6): > 32 µM | IC50 (GR-ST): 5.8 µM | IC50 (EW-18): 10.5 µM | IC50 (L-428): 5.39 µM | IC50 (MV4-11): > 32 µM | IC50 (RH-1): 13.3 µM | IC50 (KP-N-YS): > 32 µM | IC50 (TE-9): 8.5 µM | IC50 (TE-5): 9.42 µM | IC50 (SCC-15): 7.81 µM | IC50 (LB771-HNC): > 32 µM | IC50 (ES5): > 32 µM | IC50 (NCI-H226): 17.9 µM | IC50 (PSN1): 5.41 µM | IC50 (no-10): 13.9 µM | IC50 (NCI-H526): > 32 µM | IC50 (NEC8): 6.89 µM | IC50 (GAK): 11.7 µM | IC50 (U-87 MG): > 32 µM | IC50 (SK-NEP-1): 15.1 µM | IC50 (LB1047-RCC): 5.8 µM | IC50 (HAL-01): 25.8 µM | IC50 (NCI-H720): > 32 µM | IC50 (MOLT-16): 11.9 µM | IC50 (NCI-H1092): > 32 µM | IC50 (LXF-289 cell line): 9 µM | IC50 (HCC2157): > 32 µM | IC50 (8-MG-BA): 3.53 µM | IC50 (QIMR-WIL): 5.29 µM | IC50 (SK-PN-DW): 30.6 µM | IC50 (GI-1): 3.76 µM | IC50 (OVCAR-4): 12.3 µM | IC50 (SCH): > 32 µM | IC50 (SJSA-1): 4.27 µM | IC50 (HCC1187): > 32 µM | IC50 (MHH-NB-11): > 32 µM | IC50 (NCI-N87): > 32 µM | IC50 (CCRF-CEM): 3.02 µM | IC50 (TGBC1TKB): 11 µM | IC50 (OCI-AML2): 9.25 µM | IC50 (RXF 393): > 32 µM | IC50 (NCI-H1355): 10.1 µM | IC50 (SNB-75): 17.4 µM

OC[C@H](Cc1ccccc1)Nc1nc(Oc2ccc3c(c2)CCC3)nc2c1ncn2Cc1ccc(-c2ccccc2)cc1
IC50 (BV-173): > 10.2 µM | IC50 (NB5): > 10.2 µM | IC50 (L-363): 6.66 µM | IC50 (NCI-H1299): > 10.2 µM | IC50 (OCUB-M): 3.68 µM | IC50 (SW 962): > 10.2 µM | IC50 (NB6): > 10.2 µM | IC50 (GR-ST): 5.51 µM | IC50 (EW-18): > 10.2 µM | IC50 (L-428): > 10.2 µM | IC50 (MV4-11): 5.51 µM | IC50 (RH-1): 5.29 µM | IC50 (KP-N-YS): 7.6 µM | IC50 (TE-9): > 10.2 µM | IC50 (TE-5): > 10.2 µM | IC50 (SCC-15): > 10.2 µM | IC50 (LB771-HNC): 3.25 µM | IC50 (ES5): > 10.2 µM | IC50 (NCI-H226): > 10.2 µM | IC50 (PSN1): 2.83 µM | IC50 (no-10): > 10.2 µM | IC50 (NCI-H526): > 10.2 µM | IC50 (NEC8): > 10.2 µM | IC50 (GAK): > 10.2 µM | IC50 (U-87 MG): > 10.2 µM | IC50 (SK-NEP-1): > 10.2 µM | IC50 (LB1047-RCC): > 10.2 µM | IC50 (HAL-01): 9.16 µM | IC50 (NCI-H720): > 10.2 µM | IC50 (MOLT-16): > 10.2 µM | IC50 (NCI-H1092): > 10.2 µM | IC50 (LXF-289 cell line): 7.61 µM | IC50 (HCC2157): > 10.2 µM | IC50 (8-MG-BA): 3.54 µM | IC50 (QIMR-WIL): 6.65 µM | IC50 (SK-PN-DW): 5.48 µM | IC50 (GI-1): 7.9 µM | IC50 (OVCAR-4): 8.19 µM | IC50 (SCH): > 10.2 µM | IC50 (SJSA-1): 2.56 µM | IC50 (HCC1187): > 10.2 µM | IC50 (MHH-NB-11): > 10.2 µM | IC50 (NCI-N87): > 10.2 µM | IC50 (CCRF-CEM): 5.76 µM | IC50 (TGBC1TKB): > 10.2 µM | IC50 (OCI-AML2): 5.77 µM | IC50 (RXF 393): > 10.2 µM | IC50 (NCI-H1355): > 10.2 µM | IC50 (SNB-75): > 10.2 µM
